Consider one compound from patent US20250152651A1, “COMPOSITIONS AND METHODS FOR EXTRACTING COMPOUNDS” (Unicity Properties, Inc., priority 2023, published 2025).

The assay deals with α-glucosidase. In words: α-glucosidase inhibitory activity assay. It counts as biochemical. The following applies: alpha-glucosidase 1 U/ml, P-NPG substrate, 37° C., pH 6.8. On the procedure:
An assay to measure α-glucosidase inhibitory activity of extract and fractions was carried out according to the standard method with minor modification. In a 96-well plate, reaction mixture containing 50 μl phosphate buffer (100 mM, pH=6. 8), 10 μl alpha-glucosidase (1 U/ml), and 20 μl of varying concentrations of extract and fractions (0.1, 0.2, 0.3, 0.4, and 0.5 mg/ml) was preincubated at 37° C. for 15 min. Then, 20 μl P-NPG (5 mM) were added as a substrate and incubated further at 37° C. for 20 min. The reaction was stopped by adding 50 μl Na2 CO3 (0.1 M). The absorbance of the released p-nitrophenol was measured at 405 nm using Multiplate Reader. Acarbose at various concentrations (0.1-0.5 mg/ml) was included as a standard. Without test substance was set up in parallel as a control and each experiment was performed in triplicates. The results were expressed as percentage inhibition, which was calculated using the formula,
Inhibitory activity (%)=(1−As/Ac)×100 • where, As is the absorbance in the presence of test substance and Ac is the absorbance of control.

SMILES strings stand for the structures. Values joined by “and” are separate entries in the source; they are usually repeats but may differ in a detail not shown here. Equal values may be shown once.

As to `O=C(O[C@@H]1Cc2c(O)cc(O)cc2O[C@@H]1c1cc(O)c(O)c(O)c1)c1cc(O)c(O)c(O)c1` [EGCG, epigallocatechin gallate], the “IC50 values of α-glucosidase” value was 138 µg/mL and 138.6 µg/mL.
